Assay results: US8618151B2, “Inhibitors of HCV NS5A” (Presidio Pharmaceuticals, Inc., priority 2008, dated 2013)

tested on: HCV genotype 1b replicon; test: HCV replicon assay (1b_Huh-Luc/Neo-ET cell line, luciferase readout); assay type: cell-based; conditions: Hepatitis C virus, Huh-7, 72 h, read-out: Inhibition of HCV genotype 1b
Protocol: Biological activity of the compounds of the invention was determined using an HCV replicon assay. The 1b_Huh-Luc/Neo-ET cell line persistently expressing a bicistronic genotype 1b replicon in Huh 7 cells was obtained from ReBLikon GMBH. This cell line was used to test compound inhibition using luciferase enzyme activity readout as a measurement of compound inhibition of replicon levels.
On Day 1 (the day after plating), each compound is added in triplicate to the cells. Plates incubated for 72 h prior to running the luciferase assay. Enzyme activity was measured using a Bright-Glo Kit (cat. number E2620) manufactured by Promega Corporation. The following equation was used to generate a percent control value for each compound. % Control=(Average Compound Value/Average Control)*100
The EC50 value was determined using GraphPad Prism and the following equation: Y=Bottom+(Top−Bottom)/1+10^((Log IC50−X)*HillSlope))
EC50 values of compounds are repeated several times in the replicon assay.

SMILES | EC50
COC(=O)N[C@H](C(=O)N1CCC[C@H]1c1ncc(-c2ccc(-c3ccc4cc(-c5c[nH]c([C@@H]6CCCN6C(=O)[C@@H](NC(=O)OC)[C@@H](C)OC)n5)ccc4n3)cc2)[nH]1)C(C)C [compound 40] | < 1 nM
COC(=O)N[C@@H](C)C(=O)N1CCC[C@H]1c1nc(-c2ccc3nc(-c4ccc(-c5cnc([C@@H]6CCCN6C(=O)[C@@H](NC(=O)OC)C(C)C)[nH]5)cc4)ccc3c2)c[nH]1 [compound 41] | < 1 nM
COC(=O)N[C@H](C(=O)N1CCC[C@H]1c1nc(-c2ccc3nc(-c4ccc(-c5cnc([C@@H]6CCCN6C(=O)[C@@H](NC(=O)OC)C6CCOCC6)[nH]5)cc4)ccc3c2)c[nH]1)C(C)C [compound 42] | < 1 nM
COC(=O)N[C@H](C(=O)N1CCC[C@H]1c1nc(-c2ccc3nc(-c4ccc(-c5cnc([C@@H]6CCCN6C(=O)[C@@H](NC(=O)OC)[C@@H](C)OC)[nH]5)cc4)ccc3c2)c[nH]1)C(C)C [compound 43] | < 1 nM
COC(=O)N[C@@H](C)C(=O)N1CCC[C@H]1c1ncc(-c2ccc(-c3ccc4cc(-c5c[nH]c([C@@H]6CCCN6C(=O)[C@@H](NC(=O)OC)C(C)C)n5)ccc4n3)cc2)[nH]1 [compound 44] | < 1 nM
COC(=O)N[C@H](C(=O)N1CCC[C@H]1c1ncc(-c2ccc(-c3ccc4cc(-c5c[nH]c([C@@H]6CCCN6C(=O)[C@H](NC(=O)OC)c6ccccc6)n5)cnc4c3)cc2)[nH]1)C(C)C [compound 45] | < 1 nM
COC(=O)N[C@H](C(=O)N1CCC[C@H]1c1nc(-c2ccc3cc(-c4ccc(-c5cnc([C@@H]6CCCN6C(=O)[C@@H](NC(=O)OC)C6CCOCC6)[nH]5)cc4)ccc3c2)c[nH]1)C(C)C [compound 46] | < 1 nM
COC(=O)N[C@H](C(=O)N1CCC[C@H]1c1ncc(-c2ccc(-c3ccc4cc(-c5c[nH]c([C@@H]6CCCN6C(=O)[C@@H](NC(=O)OC)C6CCOCC6)n5)ccc4c3)cc2)[nH]1)C(C)C [compound 47] | < 1 nM
COC(=O)N[C@H](C(=O)N1CCC[C@H]1c1ncc(-c2ccc(-c3ccc4cc(-c5c[nH]c([C@@H]6CCCN6C(=O)[C@H](NC(=O)OC)c6ccccc6)n5)ccc4c3)nc2)[nH]1)C(C)C [compound 48] | < 1 nM
COC(=O)N[C@H](C(=O)N1CCC[C@H]1c1nc(-c2cnc3cc(-c4ccc(-c5cnc([C@@H]6CCCN6C(=O)[C@@H](NC(=O)OC)C6CCOCC6)[nH]5)cc4)ccc3c2)c[nH]1)C(C)C [compound 49] | < 1 nM
COC(=O)N[C@H](C(=O)N1CCC[C@H]1c1ncc(-c2ccc(-c3ccc4cc(-c5c[nH]c([C@@H]6CCCN6C(=O)[C@@H](NC(=O)OC)C6CCOCC6)n5)cnc4c3)cc2)[nH]1)C(C)C [compound 50] | < 1 nM
COC(=O)N[C@H](C(=O)N1CCC[C@H]1c1nc(-c2ccc3cc(-c4ccc(-c5cnc([C@@H]6CCCN6C(=O)[C@@H](NC(=O)OC)C6CCOCC6)[nH]5)cn4)ccc3c2)c[nH]1)C(C)C [compound 51] | < 1 nM
COC(=O)N[C@H](C(=O)N1CCC[C@H]1c1ncc(-c2ccc(-c3ccc4cc(-c5c[nH]c([C@@H]6CCCN6C(=O)[C@@H](NC(=O)OC)C6CCOCC6)n5)ccc4c3)nc2)[nH]1)C(C)C [compound 52] | < 1 nM
COC(=O)N[C@H](C(=O)N1CCC[C@H]1c1nc(-c2ccc3nc(-c4ccc(-c5cnc([C@@H]6CCCN6C(=O)[C@@H](NC(=O)OC)C(C)C)[nH]5)nc4)ccc3c2)c[nH]1)C(C)C [compound 53] | < 1 nM
COC(=O)N[C@@H](C(=O)N1CCC[C@H]1c1nc(-c2ccc3nc(-c4ccc(-c5cnc([C@@H]6CCCN6C(=O)[C@H](NC(=O)OC)c6ccccc6)[nH]5)nc4)ccc3c2)c[nH]1)c1ccccc1 [compound 54] | < 1 nM
COC(=O)N[C@H](C(=O)N1CCC[C@H]1c1nc(-c2ccc3cc(-c4ccc(-c5cnc([C@@H]6CCCN6C(=O)[C@H](NC(=O)OC)c6ccccc6)[nH]5)cn4)ccc3c2)c[nH]1)C(C)C [compound 56] | < 1 nM
COC(=O)N[C@H](C(=O)N1CCC[C@H]1c1nc(-c2cnc3cc(-c4ccc(-c5cnc([C@@H]6CCCN6C(=O)[C@@H](NC(=O)OC)C(C)C)[nH]5)cc4F)ccc3c2)c[nH]1)C(C)C [compound 57] | < 1 nM
COC(=O)N[C@H](C(=O)N1CCC[C@H]1c1ncc(-c2ccc(-c3ccc4cc(-c5c[nH]c([C@@H]6CCCN6C(=O)[C@H](NC(=O)OC)c6ccccc6)n5)cnc4c3)c(F)c2)[nH]1)C(C)C [compound 58] | < 1 nM
COC(=O)N[C@H](C(=O)N1CCC[C@H]1c1ncc(-c2ccc(-c3ccc4cc(-c5c[nH]c([C@@H]6CCCN6C(=O)[C@@H](NC(=O)OC)C6CCOCC6)n5)cnc4c3)c(F)c2)[nH]1)C(C)C [compound 59] | < 1 nM
COC(=O)N[C@H](C(=O)N1CCC[C@H]1c1ncc(-c2ccc(-c3ccc4cc(-c5c[nH]c([C@@H]6CCCN6C(=O)[C@H](NC(=O)OC)c6ccccc6)n5)cnc4c3)nc2)[nH]1)C(C)C [compound 60] | < 1 nM

SMILES | EC50
COC(=O)N[C@H](C(=O)N1CCC[C@H]1c1ncc(-c2ccc(-c3ccc4cc(-c5c[nH]c([C@@H]6CCCN6C(=O)[C@@H](NC(=O)OC)C6CCOCC6)n5)cnc4c3)nc2)[nH]1)C(C)C [compound 61] | < 1 nM
COC(=O)N[C@H](C(=O)N1CCC[C@H]1c1nc(-c2cnc3cc(-c4ccc(-c5cnc([C@@H]6CCCN6C(=O)[C@@H](NC(=O)OC)C6CCOCC6)[nH]5)cn4)ccc3c2)c[nH]1)C(C)C [compound 62] | < 1 nM
COC(=O)N[C@H](C(=O)N1CCC[C@H]1c1nc(-c2ccc3cc(-c4ccc(-c5cnc([C@@H]6CCCN6C(=O)[C@H](NC(=O)OC)c6ccccc6)[nH]5)nc4)ccc3c2)c[nH]1)C(C)C [compound 63] | < 1 nM
COC(=O)N[C@H](C(=O)N1CCC[C@H]1c1nc(-c2ccc3cc(-c4ccc(-c5cnc([C@@H]6CCCN6C(=O)[C@H](NC(=O)OC)c6ccccc6)[nH]5)cc4F)ccc3c2)c[nH]1)C(C)C [compound 64] | < 1 nM
COC(=O)N[C@H](C(=O)N1CCC[C@H]1c1nc(-c2ccc3cc(-c4ccc(-c5cnc([C@@H]6CCCN6C(=O)[C@@H](NC(=O)OC)C6CCOCC6)[nH]5)cc4F)ccc3c2)c[nH]1)C(C)C [compound 65] | < 1 nM
COC(=O)N[C@H](C(=O)N1CCC[C@H]1c1nc(-c2ccc3cc(-c4ccc(-c5cnc([C@@H]6CCCN6C(=O)[C@@H](NC(=O)OC)C(C)C)[nH]5)cc4F)ccc3c2)c[nH]1)C(C)C [compound 66] | < 1 nM
COC(=O)N[C@H](C(=O)N1CCC[C@H]1c1ncc(-c2ccc(-c3ccc4cc(-c5c[nH]c([C@@H]6CCCN6C(=O)[C@H](NC(=O)OC)c6ccccc6)n5)ccc4c3)c(F)c2)[nH]1)C(C)C [compound 67] | < 1 nM
COC(=O)N[C@H](C(=O)N1CCC[C@H]1c1ncc(-c2ccc(-c3ccc4cc(-c5c[nH]c([C@@H]6CCCN6C(=O)[C@@H](NC(=O)OC)C6CCOCC6)n5)ccc4c3)c(F)c2)[nH]1)C(C)C [compound 68] | < 1 nM
COC(=O)N[C@H](C(=O)N1CCC[C@H]1c1nc(-c2ccc3cc(-c4ccc(-c5cnc([C@@H]6CCCN6C(=O)[C@H](NC(=O)OC)c6ccccc6)[nH]5)cc4C)ccc3c2)c[nH]1)C(C)C [compound 69] | < 1 nM
COC(=O)N[C@H](C(=O)N1CCC[C@H]1c1ncc(-c2ccc(-c3ccc4cc(-c5c[nH]c([C@@H]6CCCN6C(=O)[C@H](NC(=O)OC(C)(C)C)c6ccccc6)n5)ccc4n3)cn2)[nH]1)C(C)C [compound 70] | < 1 nM
COC(=O)N[C@H](C(=O)N1CCC[C@H]1c1nc(-c2cnc3cc(-c4ccc(-c5cnc([C@@H]6CCCN6C(=O)[C@H](NC(=O)OC)c6ccccc6)[nH]5)cc4)ccc3c2)c[nH]1)C1CCOCC1 [compound 71] | < 1 nM
COC(=O)N[C@H](C(=O)N1CCC[C@H]1c1nc(-c2cnc3cc(-c4ccc(-c5cnc([C@@H]6CCCN6C(=O)[C@H](NC(=O)OC(C)(C)C)c6ccccc6)[nH]5)cc4)ccc3c2)c[nH]1)C1CCOCC1 [compound 72] | < 1 nM
COC(=O)N[C@H](C(=O)N1CCC[C@H]1c1nc(-c2cnc3cc(-c4ccc(-c5cnc([C@@H]6CCCN6C(=O)[C@@H](NC(=O)OC)C6CCOCC6)[nH]5)cc4)ccc3c2)c[nH]1)C1CCOCC1 [compound 73] | < 1 nM
COC(=O)N[C@H](C(=O)N1CCC[C@H]1c1nc(-c2cnc3cc(-c4ccc(-c5cnc([C@@H]6CCCN6C(=O)[C@@H](NC(=O)OC)C(C)C)[nH]5)cn4)ccc3c2)c[nH]1)C(C)C [compound 74] | < 1 nM
COC(=O)N[C@H](C(=O)N1CCC[C@H]1c1nc(-c2cnc3cc(-c4ccc(-c5cnc([C@@H]6CCCN6C(=O)[C@@H](NC(=O)OC)C6CCOCC6)[nH]5)cn4)ccc3c2)c[nH]1)C1CCOCC1 [compound 75] | < 1 nM
COC(=O)N[C@H](C(=O)N1CCC[C@H]1c1nc(-c2ccc3[nH]c(-c4ccc(-c5cnc([C@@H]6CCCN6C(=O)[C@@H](NC(=O)OC)C(C)C)[nH]5)cc4)cc(=O)c3c2)c[nH]1)C(C)C [compound 76] | < 1 nM
COC(=O)N[C@@H](C(=O)N1CCC[C@H]1c1nc(-c2ccc3[nH]c(-c4ccc(-c5cnc([C@@H]6CCCN6C(=O)[C@H](NC(=O)OC)c6ccccc6)[nH]5)cc4)cc(=O)c3c2)c[nH]1)c1ccccc1 [compound 77] | 10 to 999 nM
COC(=O)N[C@@H](C(=O)N1CCC[C@H]1c1nc(-c2ccc3nc(-c4ccc(-c5cnc([C@@H]6CCCN6C(=O)[C@H](NC(=O)OC)c6ccccc6)[nH]5)cc4)cc(OC)c3c2)c[nH]1)c1ccccc1 [compound 78] | < 1 nM
COC(=O)N[C@H](C(=O)N1CCC[C@H]1c1nc(-c2ccc3nc(-c4ccc(-c5cnc([C@@H]6CCCN6C(=O)[C@@H](NC(=O)OC)C(C)C)[nH]5)cc4)cc(OC)c3c2)c[nH]1)C(C)C [compound 79] | < 1 nM
